Measured values published in patent publication US20110257176A1, “NITROGEN HETEROCYCLE DERIVATIVES AS PROTEASOME MODULATORS” (INSTITUT NATIONAL DE LA SANTE ET DE LA RECHERCHE MEDICALE …, priority 2008, published 2011).

What was measured:
[1] = target: T1, rabbit reticulocyte 20S proteasome, chymotrypsin-like (CT-L) activity (UniProt G1T4Q9); assay: 20S proteasome chymotrypsin-like (CT-L) activity, Suc-LLVY-AMC hydrolysis; type: biochemical; settings: rabbit 20S proteasome, pH 8, 37° C.
T1 construct: IC50 on chymotrypsin-like activity; other: rabbit 20S proteasome, pH 8, 37° C; Rabbit erythrocyte 20S proteasome was obtained from Boston Biochem, Cambridge, USA
Description: (§1) Rabbit erythrocyte 20S proteasome was obtained from Boston Biochem, Cambridge, USA. The fluorogenic substrates Suc-LLVY-AMC, Boc-LRR-AMC and Z-LLE-βNA used to measure the proteasome activities CT-L, T-L and PA respectively were purchased from Bachem (France). Other reagents and solvents were purchased from commercial sources. Fluorescence was measured using a BMG Fluostar microplate reader.
(§2) Compounds 1-23 were tested for their potential to inhibit the CT-L, T-L and PA activities of the rabbit reticulocyte 20S proteasome. Enzyme activities were determined by monitoring the hydrolysis of the appropriate fluorogenic substrate (λexc=360, λem=465 nm for AMC substrates, and λexc=340, λem=405 nm for the βNA substrate) for 1 h at 37° C.
(§3) In the in vitro screening, each compound was tested in duplicate against the three activities, at 100 μM and 50 μM in the corresponding buffer. The buffer were (pH 8): 50 mM Tris, 150 mM NaCl, 10% (v/v) glycerol, 0.025% (w/v) SDS, and 3% (v/v) DMSO (CT-L and PA activities); 50 mM Tris, 150 mM NaCl, 10% (v/v) glycerol, and 3% (v/v) DMSO (T-L activity).
(§4) The inhibitory activity of compounds is expressed as IC50, which corresponds to the concentration of proteasome inhibitor leading to a loss of activity of 50%. The values of IC50 were calculated by fitting the experimental data to equation 1: % Inhibition=100×(1−Vi/V0)=100 [I]0/(IC50+[I]0), or equation 2: % Inhibition=100 [I]0^nH/(IC50^nH+[I]0^nH), where Vi is the initial rate in the presence of the inhibitor, V0 is the initial rate in the absence of the inhibitor, [I]0 is the inhibitor concentration, nH is the Hill number (FIG. 1).

[2] = target: rabbit reticulocyte 20S proteasome, post-acid (PA) activity (Oryctolagus cuniculus, UniProt G1T235); assay: 20S proteasome post-acid (PA) activity, Z-LLE-βNA hydrolysis; type: biochemical; parameters: key to Inhibition of post-acid activity (NI): NI: No Inhibition; settings: rabbit 20S proteasome; for Inhibition of post-acid activity (NI): screened at 100 μM and 50 μM; for IC50: pH 8, 37° C.
Description: as §1, §2, §3, §4

[3] = tested on: rabbit reticulocyte 20S proteasome, trypsin-like (T-L) activity; assay: 20S proteasome trypsin-like (T-L) activity, Boc-LRR-AMC hydrolysis; type: biochemical; parameters: key to Inhibition of trypsin-like activity (NI): NI: No Inhibition; settings: rabbit 20S proteasome; for Inhibition of trypsin-like activity (NI): screened at 100 μM and 50 μM; for % inhibition (inhibitor concentration) on trypsin-like activity: 100 μM inhibitor
Description: as §1, §2, §3, §4

[4] = target: T2, rabbit reticulocyte 20S proteasome, chymotrypsin-like (CT-L) activity (Oryctolagus cuniculus, UniProt G1T4Q9); assay: 20S proteasome chymotrypsin-like (CT-L) activity, Suc-LLVY-AMC hydrolysis; type: biochemical; settings: rabbit 20S proteasome, pH 8, 37° C.
T2 construct: IC50 on chymotrypsin-like activity; other: rabbit 20S proteasome, pH 8, 37° C; Rabbit erythrocyte 20S proteasome was obtained from Boston Biochem, Cambridge, USA
T2 sequence (G1T4Q9 1-263): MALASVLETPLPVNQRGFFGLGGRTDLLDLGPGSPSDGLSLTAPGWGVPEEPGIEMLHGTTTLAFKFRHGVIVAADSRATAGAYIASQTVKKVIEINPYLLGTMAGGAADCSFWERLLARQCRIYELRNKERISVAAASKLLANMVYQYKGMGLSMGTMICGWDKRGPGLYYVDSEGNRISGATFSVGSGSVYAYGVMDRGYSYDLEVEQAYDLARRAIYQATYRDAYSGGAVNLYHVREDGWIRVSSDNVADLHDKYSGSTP
Description: as §1, §2, §3, §4

[5] = target: T3, human erythrocyte 20S proteasome, chymotrypsin-like (CT-L) activity (Homo sapiens, UniProt P28074); assay: as above; type: biochemical; settings: for IC50: pH 7.5
T3 construct: three activities of human erythrocyte 20S proteasome; from tissue; host or cells: human erythrocytes
Description: as §1, §4
(§5) Compounds 24, 25 and 31-35 were tested in duplicate against three activities of human erythrocyte 20S proteasome at 100 and 50 μM in the appropriate buffer (pH 7.5): 20 mM Tris HCl, 10% (v/v) glycerol, 0.01% (w/v) SDS and 2% DMSO (CT-L and PA activities); 20 mM Tris HCl, 10% (v/v) glycerol, and 2% DMSO (T-L activity). The inhibitory activities were analyzed as described above for compounds 1-23.

[6] = target: T4, human erythrocyte 20S proteasome, trypsin-like (T-L) activity (Homo sapiens, UniProt Q99436); assay: 20S proteasome trypsin-like (T-L) activity, Boc-LRR-AMC hydrolysis; type: biochemical; parameters: key to Inhibition of trypsin-like activity (NI): NI: No Inhibition; settings: for IC50: pH 7.5; for inhibition at 100 µM: 100 μM inhibitor, read-out: % inhibition (inhibitor concentration) on trypsin-like activity
T4 construct: three activities of human erythrocyte 20S proteasome; from tissue; host or cells: human erythrocytes
Description: as §1, §4, §5

[7] = target: T5, human erythrocyte 20S proteasome, post-acid (PA) activity (Homo sapiens, UniProt P28072); assay: 20S proteasome post-acid (PA) activity, Z-LLE-βNA hydrolysis; type: biochemical; parameters: key: NI: No Inhibition; settings: screened at 100 and 50 μM
T5 construct: three activities of human erythrocyte 20S proteasome; from tissue; host or cells: human erythrocytes
Description: as §1, §4, §5

Sequence of rabbit reticulocyte 20S proteasome, post-acid (PA) activity (G1T235 entry or part of it): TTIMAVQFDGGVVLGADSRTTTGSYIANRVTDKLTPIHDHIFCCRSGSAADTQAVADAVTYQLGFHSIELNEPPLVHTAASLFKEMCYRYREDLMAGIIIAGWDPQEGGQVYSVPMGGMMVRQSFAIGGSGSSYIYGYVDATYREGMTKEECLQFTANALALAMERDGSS

| SMILES | IC50 [1] | Inhibition of trypsin-like activity (NI) [3] | IC50 [5] | melting point | Inhibition of post-acid activity (NI) [7] | other results |
| --- | --- | --- | --- | --- | --- | --- |
| C=CCN(Cc1nc(-c2ccccc2)no1)C(=O)COc1ccc(C)cc1 [Compound 18] | 0.33 ± 0.03 µM | NI |  |  |  | Inhibition of post-acid activity (NI) [2]: NI |
| CCOc1ccc(C(=O)N(Cc2nc(-c3ccc(OC)cc3)no2)C(C)C)cc1 [Compound 20] |  |  |  |  |  | IC50 [4]: ~18 µM; Inhibition of post-acid activity (NI) [2]: NI; Activation × of trypsin-like activity ([3]; 50 μM compound, fold activation): Activation × 3.4 (50 μM) |
| COc1ccc(C(=O)NCCc2nnc(SCC(=O)Nc3cc(C)ccc3OC)n2C)cc1 [Compound 22] |  |  |  |  |  | IC50 [4]: 80 µM; inhibition at 100 µM ([2]; 100 μM inhibitor, read-out: % inhibition (inhibitor concentration) on post-acid activity): 16%; % inhibition (inhibitor concentration) on trypsin-like activity [3]: 22% (100 μM) |
| COc1ccc(Cl)cc1NC(=O)CSc1nnc(C(CO)NC(=O)c2ccccc2)n1C (stereo not drawn) [Compound 23] |  |  |  |  |  | IC50 [4]: 85 µM; Inhibition of post-acid activity (NI) [2]: NI; % inhibition (inhibitor concentration) on trypsin-like activity [3]: 50% (100 μM) |
| CC(C)N(Cc1nc(-c2ccc(Oc3ccccc3)cc2)no1)C(=O)COc1ccc(Br)cc1 [Compound 24] |  |  | 0.61 ± 0.03 µM | 87 °C | NI | IC50 [6]: 10.8 ± 0.4 µM |
| COc1ccc(-c2noc(CN(C(=O)COc3ccc(Br)cc3)C(C)C)n2)cc1OC [Compound 25] |  |  | 0.037 ± 0.003 µM | 135 °C | NI | Inhibition of trypsin-like activity (NI) ([6]; screened at 100 and 50 μM): NI |
| Cc1noc(CN(C(=O)COc2ccc(Br)cc2)C(C)C)n1 [Compound 27] | 12.3 ± 0.3 µM | NI |  |  |  | IC50 [2]: 76 ± 2 µM |
| CC(C)c1noc(CN(C(=O)COc2ccc(Br)cc2)C(C)C)n1 [Compound 28] | 12.3 ± 0.3 µM | NI |  |  |  | IC50 [2]: 45 ± 1 µM |
| CC(C)N(Cc1nc(C(C)(C)C)no1)C(=O)COc1ccc(Br)cc1 [Compound 29] | 81 ± 4 µM | NI |  |  |  | IC50 [2]: 28 ± 3 µM |
| CC(C)N(Cc1nc(-c2cccc3ccccc23)no1)C(=O)COc1ccc(Br)cc1 [Compound 32] |  |  |  | 114 °C | NI | inhibition at 100 µM ([5]; 100 μM inhibitor, read-out: % inhibition (inhibitor concentration) on chymotrypsin-like activity): 30%; IC50 [6]: 29.1 ± 0.9 µM |
| CC(C)N(Cc1nc(CN2CCOCC2)no1)C(=O)COc1ccc(Br)cc1 [Compound 33] |  |  | 78.6 ± 1.6 µM | 110 °C | NI | inhibition at 100 µM [6]: 42% |
| CCN(CC)Cc1noc(CN(C(=O)COc2ccc(Br)cc2)C(C)C)n1 [Compound 34] |  |  | 30.9 ± 2.3 µM | 168 °C | NI | inhibition at 100 µM [6]: 28% |
| CC(C)N(Cc1nc(CN2CCCCC2)no1)C(=O)COc1ccc(Br)cc1 [Compound 35] |  |  | 37.3 ± 4.2 µM | 144 °C | NI | inhibition at 100 µM [6]: 47% |
